Laboratory results as given in patent publication US20230212571A1, “COMPOSITIONS AND METHODS FOR DELIVERING POLYNUCLEOTIDES” (NeOnc Technologies, Inc., priority 2020, published 2023).

Tests used:
[1] = system: BEC; assay: RT-qPCR mRNA expression in control BEC; format: cell-based, human
Source text: Human surgical specimens were obtained following written informed consent from patients in accordance with Declaration of Helsinki guidelines and the Institutional Review Board (HS-04B053), at Keck School of Medicine, USC. AVM-BECs were isolated from brain tissues of patients who underwent microsurgical AVM resection. Control BECs were isolated from the structurally normal […] of patients who underwent temporal lobectomy for intractable epilepsy. Endothelial cell (EC) isolation and culture were described^5,9. (Stapleton C J, Armstrong D L, Zidovetzki R, Liu C Y, Giannotta S L, Hofman F M. Thrombospondin-1 modulates the angiogenic phenotype of human cerebral arteriovenous malformation endothelial cells. Neurosurgery. 2011; 68(5):1342-1353) (Ferreira R, Santos T, Amar A, et al. Argonaute-2 promotes miR-18a entry in human brain endothelial cells. J Am Heart Assoc. 2014; 3(3):e000968) ECs were only used between passages 3-5. Experiments were performed under shear flow conditions (12 dyn/cm^2) to reproduce arterial flow^6. (Ferreira R, Santos T, Amar A, et al. MicroRNA-18a improves human cerebral arteriovenous malformation endothelial cell function. Stroke. 2014; 45(1):293-297). For hypoxic experiments, cells were cultured in a Galaxy 48R (Eppendorf) incubator at 3% O2. MicroRNAs were co-administered with Ago-2 to increase the cellular uptake of miR-18a^9 (Ferreira R, Santos T, Amar A, et al. Argonaute-2 promotes miR-18a entry in human brain endothelial cells. J Am Heart Assoc. 2014; 3(3):e000968) (FIG. 9). Methods regarding cell treatments and transfections were included in Data.
MiR-18a (hsa-miR-18a-5p, 40 nM, Dharmacon) or a scramble microRNA (40 nM, Dharmacon) in nuclease-free water was added with argonaute 2 (Ago-2, 0.4 nM, Abcam) as the microRNA carrier and stabilizer^9. (Ferreira R, Santos T, Amar A, et al. Argonaute-2 promotes miR-18a entry in human brain endothelial cells. J Am Heart Assoc. 2014; 3(3):e000968). No transfection reagent was used with miR-18a or scramble microRNA treatments. Recombinant human TSP-1 (R&D Systems) stock solution was prepared in PBS and further diluted in culture medium to be used at a final concentration of 1000 ng/mL. Cells were treated during 24 h for mRNA and 48 h for protein expression studies. NEO100 (NeOnc Technologies) stock was prepared in DMSO and used immediately or stored at −20° C.
The extraction and analysis of total mRNA and microRNAs were described^9,13. […] For mRNA studies, 02-Microglobulin (B2M) was measured for sample normalization. […]

[2] = system: AVM-BEC; assay: Biotinylated miR-18a uptake analysis in AVM-BEC; format: cell-based, human; details: biotinylated probes, 30 min at 37° C., no transfection reagent, Ago-2 0.4 nM when indicated
Experimental: Biotinylated hsa-miR-18a-5p sense and hsa-miR-18a-3p sense probes were acquired from Integrated DNA Technologies (IDT) and reconstituted in RNAse-free water. A scramble sequence of the miR-18a was designed using GenScript®, and the biotinylated probe using this sequence was also acquired from IDT and reconstituted in RNAse-free water. […] Then, media was replaced by fresh media containing the corresponding probes without Lipofectamine, and AVM-BEC were incubated for 30 min at 37° C. in shear flow conditions. When indicated, Ago-2 (0.4 nM, Abcam) was co-administered with the probes as the microRNA carrier and stabilizer^1. Cells were then washed with PBS and fixed with 4% paraformaldehyde (PFA). Avidin/Biotin blocking kit (Vector Laboratories) was used to block unspecific bindings, and cells were incubated with Alexa Fluor 488 streptavidin (1:200, Thermo Fisher Scientific) for 1 h at room temperature to detect the tagged microRNAs. DAPI (Thermo Fisher Scientific) was used to detect cell nuclei. Cells were mounted with Dako Fluorescence Mounting Medium. Pictures were taken in a Zeiss LSM 510 confocal microscope (Carl Zeiss Inc.).

Substance: hsa-miR-18a-5p (UAGGUGCAUCUAGUGCAGAUAG; chemistry not given here; listed as Homo sapiens) [small non-coding RNA molecule involved in post-transcriptional regulation of gene expression; Dharmacon]
- ALK1 mRNA expression ([1]; P=0.0482): decreased
- BMP4, ALK2, ALK5 and MGP mRNA expression ([1]; P>0.05): No significant differences
- HIF-1α expression ([1]; hypoxia 3% O2): remained unaltered
- HIF-1α expression ([1]; normoxia, P>0.9999): without affecting BEC
- uptake: levels of miR-18a detected inside the AVM-BEC and their nuclei [2]: enough to obtain AVM-BEC uptake
